Earlier results on 2 compounds are cited in EP0200541B1, “Immunochemical method and analytical composition and element for determination of creatine kinase-MB” (EASTMAN KODAK COMPANY (a New Jersey corporation), priority 1985, dated 1986).

The target of one data set is T1, muscle AK (Homo sapiens, UniProt P00568).
T1 sequence (P00568 1-194): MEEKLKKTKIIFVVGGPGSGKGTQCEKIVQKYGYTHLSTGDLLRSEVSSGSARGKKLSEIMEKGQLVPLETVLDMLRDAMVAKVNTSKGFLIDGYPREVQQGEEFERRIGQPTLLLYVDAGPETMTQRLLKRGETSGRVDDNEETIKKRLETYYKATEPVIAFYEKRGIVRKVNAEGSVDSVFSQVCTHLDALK
The settings on record: 0.01 millimolar DAPP.

For the next data set, the target named is T2, erythrocyte AK (Homo sapiens, UniProt P00568).
T2 sequence (P00568 1-194): T1 sequence (P00568 1-194)
The settings on record: 0.01 millimolar DAPP.

The next data set has as its target CK-MB (Homo sapiens, UniProt P06732+P12277). To be noted: 0.5-1 millimolar DAPP.
For the next data set, the target named is liver AK (Homo sapiens, UniProt P54819).
In a further data set the test system is total AK. The settings on record: AMP:ADP molar ratio of 10:1.

Chain of CK-MB (P06732 whole entry): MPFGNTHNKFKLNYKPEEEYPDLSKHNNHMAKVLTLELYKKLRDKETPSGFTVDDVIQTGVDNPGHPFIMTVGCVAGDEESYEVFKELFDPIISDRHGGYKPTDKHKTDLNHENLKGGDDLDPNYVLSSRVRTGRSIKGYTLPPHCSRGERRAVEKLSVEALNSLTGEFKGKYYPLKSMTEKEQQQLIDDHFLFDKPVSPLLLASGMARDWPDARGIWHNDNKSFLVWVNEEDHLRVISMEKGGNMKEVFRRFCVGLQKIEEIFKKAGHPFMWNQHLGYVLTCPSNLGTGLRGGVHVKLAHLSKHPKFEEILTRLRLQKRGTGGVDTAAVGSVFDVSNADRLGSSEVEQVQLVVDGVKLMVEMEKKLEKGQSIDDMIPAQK
Chain of CK-MB (P12277 whole entry): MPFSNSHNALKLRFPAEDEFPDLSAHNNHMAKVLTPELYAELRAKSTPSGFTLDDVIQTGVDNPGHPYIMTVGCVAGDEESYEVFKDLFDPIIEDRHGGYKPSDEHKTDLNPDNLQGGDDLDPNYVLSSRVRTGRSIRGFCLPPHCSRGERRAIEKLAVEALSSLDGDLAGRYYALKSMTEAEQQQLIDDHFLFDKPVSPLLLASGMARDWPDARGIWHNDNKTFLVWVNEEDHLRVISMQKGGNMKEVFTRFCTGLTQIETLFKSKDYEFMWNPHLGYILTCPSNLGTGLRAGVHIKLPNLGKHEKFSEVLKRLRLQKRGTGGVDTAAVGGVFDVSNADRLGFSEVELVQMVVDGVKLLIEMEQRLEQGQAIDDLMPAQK

On to `Nc1ncnc2c1ncn2[C@@H]1O[C@H](COP(=O)(O)OP(=O)(O)OP(=O)(O)OP(=O)(O)OP(=O)(O)OC[C@H]2O[C@@H](n3cnc4c(N)ncnc43)[C@H](O)[C@@H]2O)[C@@H](O)[C@H]1O` [DAPP, P^1,P^5-di(adenosine-5')pentaphosphate], for which, on muscle AK, the “muscle AK inhibited” value is reported as 97%. In the data set with total CK (0.5-1 millimolar DAPP alone), the “reduction in CK activity” value is on record as 5%. Moreover, the “erythrocyte AK inhibited” value on erythrocyte AK is reported as 97%. The “reduction of the activity of CK-MB” value on CK-MB is “at least 5%”. Moreover, at liver AK (0.01 millimolar DAPP), the liver isoenzyme inhibited is 80%. The “activity of liver AK inhibited” value on liver AK (0.5-1 millimolar DAPP alone) is “up to 97%”.

With `Nc1ncnc2c1ncn2[C@@H]1O[C@H](COP(=O)(O)O)[C@@H](O)[C@H]1O` [AMP, adenosine-5'-monophosphate], the “reduction of the activity of total CK” value with total CK (AMP:ADP molar ratio of 10:1) was 15-20%. The “total AK inhibited” value in the data set on total AK is recorded as 95%.
